In data set [1] the test system is downmodulation of MHC-I molecules expressed on the surface of HIV infected SupT1 cells. Briefly: cells. To be noted: for EC50: Human immunodeficiency virus 1, SUP-T1, read-out: EC50 for inhibition of MHC-I downmodulation utilizing the R1 parameter; for activity at 100 µM: Human immunodeficiency virus 1, SUP-T1, read-out: R1 @ 100 μM (R1 value for MHC-I downmodulation as % of the vehicle control).

Another data set can be described thus: in vitro. As to conditions: human, uninfected SupT1 cells.

Drawing on patent US20220411419A1, “SMALL MOLECULE MODULATORS OF MHC-I” (RetroVirox, Inc., priority 2018, published 2022), this text covers EC50, CC50 and activity for 30 compounds.

The structures appear in SMILES notation.

Turning to `Cc1ccc(N(C(=O)COc2cccc3c2OC(C)(C)C3)c2ccccc2)nn1` [Compound 89, 2-((2,2-Dimethyl-2,3-dihydrobenzofuran-7-yl)oxy)-N-(6-methylpyridazin-3-yl)-N-phenylacetamide], the EC50 in data set [1] is 0.38 µM. The same compound gave a CC50 at 48 h in the data set “in vitro” greater than 100 µM.

For the compound `Cc1csc(N(C(=O)COc2cccc3c2OC(C)(C)C3)c2cnccn2)n1` [Compound 90], in data set [1], the EC50 was greater than 25 µM and the activity at 100 µM turned out to be 31%. In “in vitro”, the CC50 was greater than 100 µM and the CC50 at 48 h is greater than 100 µM.

For the compound `Cc1csc(N(C(=O)COc2cccc3c2OC(C)(C)C3)c2ccccn2)n1` [Compound 91, 2-((2,2-Dimethyl-2,3-dihydrobenzofuran-7-yl)oxy)-N-(4-methylthiazol-2-yl)-N-(pyridin-2-yl)acetamide], the EC50 in data set [1] is 0.89 µM. This compound registered a CC50 at 48 h in “in vitro” greater than 100 µM.

As to `Cc1ccc(N(C(=O)COc2cccc3c2OC(C)(C)C3)c2nc3c(s2)CCCC3)nn1` [Compound 92, 2-((2,2-Dimethyl-2,3-dihydrobenzofuran-7-yl)oxy)-N-(6-methylpyridazin-3-yl)-N-(4,5,6,7-tetrahydrobenzo[d]thiazol-2-yl)acetamide], the EC50 in data set [1] is 25 µM. The compound further displayed a CC50 at 48 h in the data set “in vitro” greater than 100 µM.

As to `Cc1ccc(N(C(=O)COc2cccc3c2OC(C)(C)C3)c2nc(C)cs2)nn1` [Compound 93, 2-((2,2-Dimethyl-2,3-dihydrobenzofuran-7-yl)oxy)-N-(6-methylpyridazin-3-yl)-N-(4-methylthiazol-2-yl)acetamide], in data set [1], the EC50 was greater than 25 µM and the activity at 100 µM is 65%. In “in vitro”, the CC50 was greater than 100 µM and the CC50 at 48 h was greater than 100 µM.

Take `CC1(C)Cc2cccc(OCC(=O)N(c3ccccc3)c3nc4c(s3)CCCC4)c2O1` [Compound 94, 2-((2,2-Dimethyl-2,3-dihydrobenzofuran-7-yl)oxy)-N-phenyl-N-(4,5,6,7-tetrahydrobenzo[d]thiazol-2-yl)acetamide]: the EC50 in data set [1] was 0.0015 µM. Further, in “in vitro”, the CC50 at 48 h is greater than 125 µM.

Regarding `Cc1csc(N(C(=O)COc2cccc3c2OC(C)(C)C3)c2ccncc2)n1` [Compound 95, 2-((2,2-Dimethyl-2,3-dihydrobenzofuran-7-yl)oxy)-N-(4-methylthiazol-2-yl)-N-(pyridin-4-yl)acetamide], the EC50 in data set [1] turned out to be 0.95 µM. Further, the CC50 at 48 h in “in vitro” was greater than 125 µM.

Regarding `Cc1csc(N(C(=O)COc2cccc3c2OC(C)(C)C3)c2ccncn2)n1` [Compound 96, 2-((2,2-Dimethyl-2,3-dihydrobenzofuran-7-yl)oxy)-N-(4-methylthiazol-2-yl)-N-(pyrimidin-4-yl)acetamide], in data set [1], the EC50 is greater than 25 µM and the activity at 100 µM amounted to 32%. In addition, in “in vitro”, the CC50 was greater than 125 µM and the CC50 at 48 h was greater than 125 µM.

As to `Cc1csc(N(C(=O)COc2cccc3c2OC(C)(C)C3)c2cncnc2)n1` [Compound 97, 2-((2,2-Dimethyl-2,3-dihydrobenzofuran-7-yl)oxy)-N-(4-methylthiazol-2-yl)-N-(pyrimidin-5-yl)acetamide], in data set [1], the EC50 was greater than 25 µM and the activity at 100 µM was found to be 5.4%. Further, in the data set “in vitro”, the CC50 is greater than 125 µM and the CC50 at 48 h is greater than 125 µM.

Consider `CC1(C)Cc2cccc(OCC(=O)N(c3ccccc3)c3nc4ccccc4s3)c2O1` [Compound 98, N-(Benzo[d]thiazol-2-yl)-2-((2,2-dimethyl-2,3-dihydrobenzofuran-7-yl)oxy)-N-phenylacetamide], for which, in data set [1], the EC50 turned out to be 29 µM. The compound further came in with a CC50 at 48 h in the data set “in vitro” greater than 90 µM.

For `COC(=O)CN(C(=O)COc1cccc2c1OC(C)(C)C2)c1nc2c(s1)CCCC2` [Compound 99, Methyl 2-(2-((2,2-dimethyl-2,3-dihydrobenzofuran-7-yl)oxy)-N-(4,5,6,7-tetrahydrobenzo[d]thiazol-2-yl)acetamido)acetate], the EC50 in data set [1] came to 22 µM. The compound further came in with a cytotoxic concentration (CC50) at 48 h in the data set “in vitro” greater than 125 µM.

`CC1(C)Cc2cccc(OCC(=O)Nc3nc4c(-c5ccncc5)cccc4s3)c2O1` [Compound 101, 2-((2,2-dimethyl-2,3-dihydrobenzofuran-7-yl)oxy)-N-(4-(pyridin-4-yl)benzo[d]thiazol-2-yl)acetamide]: in data set [1], the EC50 is greater than 25 µM and the activity at 100 µM came out at 40%. Besides, in the data set “in vitro”, the CC50 is greater than 100 µM and the CC50 at 48 h is greater than 100 µM.

Regarding `CC1(C)Cc2cccc(OCC(=O)Nc3nc4c(-c5ccc[nH]5)cccc4s3)c2O1` [Compound 102, N-(4-(1H-Pyrrol-2-yl)benzo[d]thiazol-2-yl)-2-((2,2-dimethyl-2,3-dihydrobenzofuran-7-yl)oxy)acetamide], in data set [1], the EC50 was greater than 25 µM and the activity at 100 µM was 20%. In the data set “in vitro”, this compound showed a CC50 greater than 100 µM and a CC50 at 48 h greater than 100 µM.

For the compound `Cc1ccc(NC(=O)CCc2cccc3c2OC(C)(C)C3)nn1` [Compound 103, 3-(2,2-Dimethyl-2,3-dihydrobenzofuran-7-yl)-N-(6-methylpyridazin-3-yl) propanamide], the EC50 in data set [1] stood at 1.48 µM. The compound further registered a CC50 at 48 h in “in vitro” greater than 100 µM.

Consider `CC1(C)Cc2cccc(CCC(=O)N(Cc3ccccn3)c3nc4c(s3)CCCC4)c2O1` [Compound 104, 3-(2,2-Dimethyl-2,3-dihydrobenzofuran-7-yl)-N-(pyridin-2-ylmethyl)-N-(4,5,6,7-tetrahydrobenzo[d]thiazol-2-yl)propanamide], for which, in data set [1], the EC50 was 1.1 µM. This compound gave a CC50 at 48 h in the data set “in vitro” greater than 125 µM.

As to `CC1(C)Cc2cccc(CCC(=O)Nc3nc4c(s3)CCCC4)c2O1` [Compound 105, 3-(2,2-Dimethyl-2,3-dihydrobenzofuran-7-yl)-N-(4,5,6,7-tetrahydrobenzo[d]thiazol-2-yl)propanamide], in data set [1], the EC50 was found to be 0.39 µM. In “in vitro”, this compound registered a CC50 at 48 h greater than 125 µM.

As for `CN(C(=O)CCc1cccc2c1OC(C)(C)C2)c1nc2c(s1)CCCC2` [Compound 106, 3-(2,2-Dimethyl-2,3-dihydrobenzofuran-7-yl)-N-methyl-N-(4,5,6,7-tetrahydrobenzo[d]thiazol-2-yl)propanamide], in data set [1], the EC50 came to 0.42 µM. This compound showed a CC50 at 48 h in “in vitro” greater than 125 µM.

With `CC1(C)Cc2cccc(CCC(=O)Nc3nc4c(F)cccc4s3)c2O1` [Compound 107, 3-(2,2-Dimethyl-2,3-dihydrobenzofuran-7-yl)-N-(4-fluorobenzo[d]thiazol-2-yl)propanamide], in data set [1], the EC50 is 0.37 µM. The same compound gave a 50% cytotoxic concentration (CC50) at 48 h in “in vitro” greater than 100 µM.

Regarding `COc1ccccc1CCC(=O)N(C)c1nc2c(s1)CCCC2` [Compound 110, 3-(2-Methoxyphenyl)-N-methyl-N-(4,5,6,7-tetrahydrobenzo[d]thiazol-2-yl) propanamide], the EC50 in data set [1] stood at 4.1 µM. Moreover, the CC50 at 48 h in “in vitro” was greater than 125 µM.

With `CN(C(=O)COc1cccc2[nH]ccc12)c1nc2c(s1)CCCC2` [Compound 111, 2-((1H-Indol-4-yl)oxy)-N-methyl-N-(4,5,6,7-tetrahydrobenzo[d]thiazol-2-yl) acetamide], the EC50 in data set [1] was 0.18 µM. The compound further had a CC50 at 48 h in the data set “in vitro” greater than 125 µM.

On to `CCOc1ccccc1OCC(=O)N(C)c1nc2c(s1)CCCC2` [Compound 112, 2-(2-Ethoxyphenoxy)-N-methyl-N-(4,5,6,7-tetrahydrobenzo[d]thiazol-2-yl) acetamide], for which, in data set [1], the EC50 came to 0.22 µM. In addition, in the data set “in vitro”, the CC50 at 48 h was greater than 125 µM.

Consider `Cc1cccc(OCC(=O)N(C)c2nc3c(s2)CCCC3)c1F` [Compound 113, 2-(2-Fluoro-3-methylphenoxy)-N-methyl-N-(4,5,6,7-tetrahydrobenzo[d]thiazol-2-yl)acetamide], for which the EC50 in data set [1] was 0.55 µM. Also, the CC50 at 48 h in “in vitro” is greater than 125 µM.

With `Cc1cccc(OCC(=O)N(C)c2nc3c(s2)CCCC3)c1C` [Compound 114, 2-(2,3-Dimethylphenoxy)-N-methyl-N-(4,5,6,7-tetrahydrobenzo[d]thiazol-2-yl)acetamide], the EC50 in data set [1] was 1.2 µM. In addition, the CC50 at 48 h in the data set “in vitro” was greater than 125 µM.

`COc1cc(C)ccc1OCC(=O)N(C)c1nc2c(s1)CCCC2` [Compound 115, 2-(2-Methoxy-4-methylphenoxy)-N-methyl-N-(4,5,6,7-tetrahydrobenzo[d]thiazol-2-yl)acetamide]: the EC50 in data set [1] came out at 1.8 µM. The same compound showed a CC50 at 48 h in the data set “in vitro” greater than 125 µM.

`COc1cccc(C)c1OCC(=O)N(C)c1nc2c(s1)CCCC2` [Compound 116, 2-(2-Methoxy-6-methylphenoxy)-N-methyl-N-(4,5,6,7-tetrahydrobenzo[d]thiazol-2-yl)acetamide]: in data set [1], the EC50 is 0.2 µM. For the same compound, the CC50 at 48 h in “in vitro” is greater than 125 µM.

As to `Cc1cccc(OCC(=O)N(C)c2nc3c(s2)CCCC3)c1Br` [Compound 117, 2-(2-Bromo-3-methylphenoxy)-N-methyl-N-(4,5,6,7-tetrahydrobenzo[d]thiazol-2-yl)acetamide], the EC50 in data set [1] was determined as 0.95 µM. In the data set “in vitro”, this compound came in with a CC50 at 48 h greater than 125 µM.

As for `COc1c(Br)cccc1OCC(=O)N(C)c1nc2c(s1)CCCC2` [Compound 118, 2-(3-Bromo-2-methoxyphenoxy)-N-methyl-N-(4,5,6,7-tetrahydrobenzo[d]thiazol-2-yl)acetamide], the EC50 in data set [1] was 2.1 µM. Further, the CC50 at 48 h in “in vitro” was greater than 125 µM.

As for `COc1c(C)cccc1OCC(=O)N(C)c1nc2c(s1)CCCC2` [Compound 119, 2-(2-Methoxy-3-methylphenoxy)-N-methyl-N-(4,5,6,7-tetrahydrobenzo[d]thiazol-2-yl)acetamide], in data set [1], the EC50 was found to be 0.78 µM. The compound further showed a CC50 at 48 h in “in vitro” greater than 125 µM.

For the compound `COc1c(OCC(=O)N(C)c2nc3c(s2)CCCC3)cccc1C1CC1` [Compound 120, 2-(3-Cyclopropyl-2-methoxyphenoxy)-N-methyl-N-(4,5,6,7-tetrahydrobenzo [d]thiazol-2-yl)acetamide], the EC50 in data set [1] was determined as 4.8 µM. Also, in the data set “in vitro”, the CC50 at 48 h was greater than 125 µM.

For `COc1cccc(OCC(=O)N(C)c2nc3c(s2)CCCC3)c1` [Compound 121, 2-(3-Methoxyphenoxy)-N-methyl-N-(4,5,6,7-tetrahydrobenzo[d]thiazol-2-yl) acetamide], in data set [1], the EC50 is 3.9 µM. In addition, the CC50 at 48 h in the data set “in vitro” was greater than 125 µM.

As usually defined, the EC50 is the concentration giving half of the maximal effect. Broadly, the CC50 is the concentration at which the toxic effect on the cells reaches its halfway point. Higher therefore signals lower toxicity to the cells.
